In patent EP0461039B1, “Benzimidazole derivatives, process and intermediates for their preparation, their use as medicaments and pharmaceutical compositions containing them” (HOECHST MARION ROUSSEL, priority 1990, dated 1991) one finds IC50 data, which are given here for one compound.

The subject of experiment [1] is angiotensine II sur la veine porte isolée. Description: Angiotensin II antagonist activity on the isolated portal vein. The format is cell-based, rats mâles Wistar. Conditions: rat portal vein ring, angiotensin II 3.10^-8M, compound added 15 minutes before stimulation, verapamil 1.10^-6M in the bath; read-out: CI50 (the source's name). How it is done:
La veine porte est prélevée, sur des rats mâles Wistar (350 g environ) (IFFA Crédo Franc) après dislocation cervicale, et mise rapidement dans une solution physiologique (voir ci-dessous) à température ambiante. Un anneau de 1 mm environ est monté dans un bain à organe isolé contenant 20 ml de la solution physiologique suivante (composition en mM : NaCl 118,3 - KCl 4,7 - MgSO4 1,2 - KH2PO4 1,2 - NaHCO3 25 - glucose 11,1 - CaCl2 2,5) le milieu est maintenu à 37°C et oxygéné par un mélange O2 95 %, CO2 5 %. La tension initiale imposée est de 1 g, les anneaux sont laissés au repos pendant 60 à 90 minutes. Afin d'éviter les contractions spontanées, du vérapamil est ajouté au bain d'incubation (1.10^-6M).
A la fin de la période de repos l'angiotensine II (hypertensine Ciba) 3.10^-8M est ajoutée dans le bain d'incubation et laissée au contact de la préparation pendant 1 minute. Cette opération est répétée chaque 30 minutes, le tissu étant lavé 3 ou 4 fois entre deux stimulations à l'angiotensine. Le composé à étudier est introduit dans le bain 15 minutes avant une nouvelle stimulation par l'angiotensine. Des concentrations croissantes de la molécule étant appliquées, une CI50 (concentration qui produit une inhibition de 50 % de la réponse à l'angiotensine) peut être calculée, celle-ci est exprimée en nanomoles.

Experiment [2] concerns the target T1, récepteur de l'angiotensine II (Rattus norvegicus, UniProt P25095).
T1 construct: une préparation membranaire fraîche obtenue à partir de foie de rat; from tissue; host or cells: rat liver membranes
T1 sequence (P25095 1-359): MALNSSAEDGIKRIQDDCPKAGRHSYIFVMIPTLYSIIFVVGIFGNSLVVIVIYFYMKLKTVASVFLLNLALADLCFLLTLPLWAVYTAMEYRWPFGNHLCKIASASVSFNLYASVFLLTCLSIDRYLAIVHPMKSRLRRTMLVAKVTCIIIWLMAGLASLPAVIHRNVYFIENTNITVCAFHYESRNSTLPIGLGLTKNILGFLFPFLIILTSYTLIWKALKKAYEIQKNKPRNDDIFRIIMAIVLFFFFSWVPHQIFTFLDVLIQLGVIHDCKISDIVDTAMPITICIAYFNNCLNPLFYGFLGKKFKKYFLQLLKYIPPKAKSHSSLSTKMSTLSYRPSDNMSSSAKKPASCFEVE
Put plainly: Angiotensin II receptor binding test (displacement of 125I angiotensin II, rat liver membranes). The conditions noted are these: fresh rat liver membrane preparation, incubation at 25°C for 150 minutes, read-out: CI50 (the source's name). How it is done: On utilise une préparation membranaire fraîche obtenue à partir de foie de rat. Le tissu est broyé au polytron dans un tampon Tris 50 mM pH 7,4 le broyage est suivi de 3 centrifugations à 30 000 g 15' avec reprises intermédiaires des culots dans le tampon Tris pH 7,4.
Les derniers culots sont remis en suspension dans un tampon d'incubation (Tris 20 mM, NaCl 135 mM, KCl 10 mM, glucose 5 mM, MgCl2 10 mM, fluorure de phényl méthyl sulfonyle 0,3 mM, bacitracine 0,1 mM, bis(triméthylsilyl) acétamide 0,2 %).
On répartit des fractions aliquotes de 2 ml dans des tubes à hémolyse et ajoute de la ^125I angiotensine II (25 000 DPM/tube) et le produit à étudier. (Le produit est d'abord testé à 3 x 10^-5M en triple). Lorsque le produit testé déplace de plus de 50 % la radioactivité liée spécifiquement au récepteur, il est testé à nouveau selon une gamme de 7 concentrations afin de déterminer la concentration qui inhibe de 50 % la radioactivité liée spécifiquement au récepteur. On détermine ainsi la concentration inhibitrice 50 %).
La liaison non spécifique est déterminée par addition d'un produit de référence soit le produit de l'exemple 94 du brevet européen 0253310 à 10^-5M (en triple). On incube à 25°C pendant 150 minutes, remet au bain-marie à 0°C, 5 minutes, filtre sous vide, rince au tampon Tris pH 7,4 et compte la radioactivité en présence du scintillant Triton. […]
A general note: In a radioligand displacement assay an active substance lowers the binding of a labelled ligand.

With `CCCCc1nc2cccc(C(=O)O)c2n1Cc1ccc(-c2ccccc2C(=O)O)cc1` [Exemple 2, Acide 2-butyl 1-[(2'-carboxybiphényl-4-yl)méthyl] 1H-benzimidazole-7-carboxylique], the IC50 in experiment [1] worked out at 0.0095 µM; in experiment [2], 0.052 µM.
